Reference: ChEMBL document CHEMBL4359925, “Rational discovery of a highly novel and selective mTOR inhibitor” (Bioorg Med Chem Lett, 2019)

How the values were obtained:
[1] = target: Phosphatidylinositol 4,5-bisphosphate 3-kinase catalytic subunit alpha isoform (Homo sapiens, UniProt P42336); assay: Inhibition of PI3K alpha (unknown origin)
[2] = target: Serine/threonine-protein kinase mTOR (Homo sapiens, UniProt P42345); assay: Inhibition of human mTOR measured after 30 mins in presence of ATP by Lanthascreen TR-FRET assay

Chain of Phosphatidylinositol 4,5-bisphosphate 3-kinase catalytic subunit alpha isoform (P42336 whole entry, canonical isoform): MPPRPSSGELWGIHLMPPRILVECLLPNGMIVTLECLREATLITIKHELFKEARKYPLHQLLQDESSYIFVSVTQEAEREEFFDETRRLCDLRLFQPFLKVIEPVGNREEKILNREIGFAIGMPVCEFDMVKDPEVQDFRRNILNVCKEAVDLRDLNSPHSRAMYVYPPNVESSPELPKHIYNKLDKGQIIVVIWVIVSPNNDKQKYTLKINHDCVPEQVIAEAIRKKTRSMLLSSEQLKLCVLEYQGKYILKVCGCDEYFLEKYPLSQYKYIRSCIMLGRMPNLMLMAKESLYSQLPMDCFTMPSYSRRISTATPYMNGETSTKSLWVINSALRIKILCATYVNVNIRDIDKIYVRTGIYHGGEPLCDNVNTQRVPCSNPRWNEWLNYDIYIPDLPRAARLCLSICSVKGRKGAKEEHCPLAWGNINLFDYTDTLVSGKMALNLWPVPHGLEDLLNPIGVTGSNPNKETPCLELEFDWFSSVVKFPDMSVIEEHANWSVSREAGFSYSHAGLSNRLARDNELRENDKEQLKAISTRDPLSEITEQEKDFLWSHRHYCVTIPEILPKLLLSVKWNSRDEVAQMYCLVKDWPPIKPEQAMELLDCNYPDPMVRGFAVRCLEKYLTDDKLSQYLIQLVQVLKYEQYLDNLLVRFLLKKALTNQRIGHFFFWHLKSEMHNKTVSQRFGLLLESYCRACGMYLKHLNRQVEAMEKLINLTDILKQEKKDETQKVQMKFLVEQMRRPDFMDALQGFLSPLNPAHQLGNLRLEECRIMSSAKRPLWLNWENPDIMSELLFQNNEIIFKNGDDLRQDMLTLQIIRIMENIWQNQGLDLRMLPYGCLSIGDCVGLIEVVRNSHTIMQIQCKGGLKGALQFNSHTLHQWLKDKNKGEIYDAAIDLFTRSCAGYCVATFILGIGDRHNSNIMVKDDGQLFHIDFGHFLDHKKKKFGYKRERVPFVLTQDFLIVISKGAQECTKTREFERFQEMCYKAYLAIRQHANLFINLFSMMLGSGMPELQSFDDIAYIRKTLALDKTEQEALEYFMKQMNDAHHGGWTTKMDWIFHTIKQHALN

Row | IC50 [1] [µM] | IC50 [2] [µM] | Structure (SMILES)
1 | 0.0501 | 0.501 | CNC(=O)Nc1ccc(-c2ncc3c(n2)N2CCOCC2CO3)cc1 (centres undefined)
2 | 0.0794 | 0.00794 | CNC(=O)Nc1ccc(-c2ncc3c(n2)N2CCOC[C@@]2(C)C(=O)N3CC2CC2)cc1
